Experimental data as given in US12201691B2, “Core-shell structure, preparation, medicine for external application, tape agent and cosmetic product” (SEKISUI CHEMICAL CO., LTD., priority 2017, dated 2025).
Where a name gives a salt, the structure may show the parent alone.

What was measured:
dorsal skin of a rabbit = assay: Primary irritation index of active ingredients (4% by weight in Plastibase); format: in vivo; conditions: active ingredient 4% by weight in Plastibase, Draize scores at 24 and 72 hours
Method: Low skin irritation means having a primary irritation index (P.I.I.) of 5 or less. Note that, the primary irritation index can be measured by a method described below.
An active ingredient is added to an ointment base Plastibase (manufactured by Taisho Pharmaceutical Co., Ltd.) such that its content reaches 4% by weight based on the total weight, mixed, and dispersed therein to produce a formulation.
The dorsal skin of a rabbit is shaved with an electric clipper (with an electric shaver as required). Healthy skin at two points on either side of the dorsal mid-line of the dorsal skin, that is, at four points in total, is used as administration sites. Next, the formulation prepared is taken with a spatula and spread evenly on pieces of lint each having a size of 2 cm×2 cm, and the pieces are attached onto the administration sites. The lint pieces are fixed by covering with a non-woven adhesive bandage (manufactured by Nichiban Co., Ltd., MESHPORE, No. 50). Then, the administration sites are altogether wrapped with gauze and then sealed by covering with an adhesive cloth elastic bandage (manufactured by Nichiban Co., Ltd., ELASTPORE, No. 100).
Specifically, individual skin reaction scores (sum of erythema and eschar formation and edema formation) at the administration sites of each rabbit are calculated for each administration specimen at each observation time. […] Specifically, the following equations (1) and (2) are used for the calculation.

[1] = Octanol/water partition coefficient; format: physicochemical; conditions: Log10(concentration in octanol phase/concentration in aqueous phase), aqueous buffer of pH 7
Method: Note that, in the present invention, the octanol/water partition coefficient is determined based on active ingredient concentration of each phase obtained by adding an active ingredient to a flask containing octanol and an aqueous buffer of pH 7, shaking the flask, and then determining the concentration. Specifically, the partition coefficient can be determined by calculation using an equation: Octanol/water partition coefficient=Log10(concentration in an octanol phase/concentration in an aqueous phase).

Row | octanol/water partition coefficient [1] | Compound | primary irritation index (P.I.I.) (dorsal skin of a rabbit) | logD [1]
1 |  | CCN(C)C(=O)Oc1cccc([C@H](C)N(C)C)c1 [rivastigmine] | 0.5 | 
2 |  | CC(C(=O)O)c1ccc(CC2CCCC2=O)cc1 (stereo not drawn) [loxoprofen sodium dihydrate] | 0.3 | 0.8
3 |  | NC(=O)CC[C@@H]1NC(=O)[C@H](Cc2ccccc2)NC(=O)[C@H](Cc2ccc(O)cc2)NC(=O)[C@@H](N)CSSC[C@@H](C(=O)N2CCC[C@H]2C(=O)N[C@@H](CCCN=C(N)N)C(=O)NCC(N)=O)NC(=O)[C@H](CC(N)=O)NC1=O [[Arg-8]-Vasopressin] |  | -4.8
4 | 0.0 | CCCc1nc(C)c2c(=O)[nH]c(-c3cc(S(=O)(=O)N4CCN(CC)CC4)ccc3OCC)nn12 [vardenafil hydrochloride hydrate] |  | 
5 |  | CC12CC3CC(C)(C1)CC(N)(C3)C2 [memantine hydrochloride] | 2.5 | 
